Assay results as given in patent US12599136B2, “Substituted isophthalic acid diamides and their use as herbicides” (Bayer Aktiengesellschaft, priority 2020, dated 2026).

Experiments:
Format in all cases: in vivo
Abutilon theophrasti [1] = test: Pre-emergence herbicidal action against ABUTH; conditions: visual score after 3 weeks vs untreated controls
Procedure, shortened: (§1)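 Herbicidal effect was assessed 3 weeks after treatment by visual comparison with untreated controls, 100% denoting dead plants. Aqueous WP or EC preparations had been applied at 600 to 800 l/ha with 0.2% wetting agent to the soil covering freshly sown seeds.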

Alopecurus myosuroides [2] = test: Pre-emergence herbicidal action against ALOMY; conditions: visual score after 3 weeks vs untreated controls
Procedure, shortened: as §1

Amaranthus retroflexus [3] = test: Pre-emergence herbicidal action against AMARE; conditions: visual score after 3 weeks vs untreated controls
Procedure, shortened: as §1

Avena fatua [4] = test: Pre-emergence herbicidal action against AVEFA; conditions: 80 g/ha; visual score after 3 weeks vs untreated controls
Procedure, shortened: as §1

Echinochloa crus-galli [5] = test: Pre-emergence herbicidal action against ECHCG; conditions: 80 g/ha; visual score after 3 weeks vs untreated controls
Procedure, shortened: as §1

Matricaria inodora [6] = test: Pre-emergence herbicidal action against MATIN; conditions: visual score after 3 weeks vs untreated controls
Procedure, shortened: as §1

Pharbitis purpurea [7] = test: Pre-emergence herbicidal action against PHBPU; conditions: 80 g/ha; visual score after 3 weeks vs untreated controls
From the text: Seeds of monocotyledonous and dicotyledonous weed plants and crop plants are laid out in sandy loam soil in wood-fiber pots and covered with soil. The compounds of the invention, formulated in the form of wettable powders (WP) or as emulsion concentrates (EC), are then applied to the surface of the covering soil in the form of an aqueous suspension or emulsion at a water application rate equivalent to 600 to 800 l/ha, with addition of 0.2% wetting agent. After the treatment, the pots are placed in a greenhouse and kept under good growth conditions for the trial plants. The damage to the test plants is scored visually after a test period of 3 weeks by comparison with untreated controls (herbicidal activity in percent (%): 100% activity=the plants have died, 0% activity=like control plants). […] The tables below illustrate, in an illustrative manner, the post-emergence herbicidal action of the compounds of the invention, the herbicidal activity being stated in percent.

Setaria viridis [8] = test: Pre-emergence herbicidal action against SETVI
Procedure, shortened: as §1

Veronica persica [9] = test: Pre-emergence herbicidal action against VERPE; conditions: 80 g/ha
Procedure, shortened: as §1

Viola tricolor [10] = test: Pre-emergence herbicidal action against VIOTR
Procedure, shortened: as §1

Abutilon theophrasti [11] = test: Post-emergence herbicidal action against ABUTH
Procedure, shortened: (§2)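 Herbicidal effect was scored visually in percent after about 3 weeks in the greenhouse. Plants had been raised in sandy loam and treated post-emergence at the one-leaf stage with formulated compound at 600 to 800 l/ha water plus 0.2% wetting agent.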

Alopecurus myosuroides [12] = test: Post-emergence herbicidal action against ALOMY
Procedure, shortened: as §2

Amaranthus retroflexus [13] = test: Post-emergence herbicidal action against AMARE; conditions: visual assessment about 3 weeks after treatment
Procedure, shortened: as §2

Matricaria inodora [14] = test: Post-emergence herbicidal action against MATIN; conditions: visual assessment about 3 weeks after treatment
Procedure, shortened: as §2

Pharbitis purpurea [15] = test: Post-emergence herbicidal action against PHBPU; conditions: visual assessment about 3 weeks after treatment
Procedure, shortened: as §2

Setaria viridis [16] = test: Post-emergence herbicidal action against SETVI; conditions: visual assessment about 3 weeks after treatment
Procedure, shortened: as §2

Veronica persica [17] = test: Post-emergence herbicidal action against VERPE; conditions: 20 g/ha, visual assessment about 3 weeks after treatment
Procedure, shortened: as §2

Viola tricolor [18] = test: Post-emergence herbicidal action against VIOTR
Procedure, shortened: as §2

Digitaria sanguinalis = test: Pre-emergence herbicidal action against DIGSA
Procedure, shortened: as §1

Polygonum convolvulus = test: Pre-emergence herbicidal action against POLCO; conditions: 80 g/ha
Procedure, shortened: as §1

Echinochloa crus-galli [19] = test: Post-emergence herbicidal action against ECHCG; conditions: 20 g/ha, visual assessment about 3 weeks after treatment
Procedure, shortened: as §2

Avena fatua [20] = test: Post-emergence herbicidal action against AVEFA; conditions: 20 g/ha, visual assessment about 3 weeks after treatment
Procedure, shortened: as §2

| Compound | Pre-emergence action against ABUTH (Abutilon theophrasti [1]; 20 g/ha) | Pre-emergence action against ABUTH (Abutilon theophrasti [1]; 80 g/ha) | Pre-emergence action against ALOMY (Alopecurus myosuroides [2]; 80 g/ha) | Pre-emergence action against AMARE (Amaranthus retroflexus [3]; 20 g/ha) | Pre-emergence action against AMARE (Amaranthus retroflexus [3]; 80 g/ha) | Pre-emergence action against AVEFA (Avena fatua [4]) | Pre-emergence action against ECHCG (Echinochloa crus-galli [5]) | Pre-emergence action against MATIN (Matricaria inodora [6]; 20 g/ha) | Pre-emergence action against MATIN (Matricaria inodora [6]; 80 g/ha) | Pre-emergence action against PHBPU (Pharbitis purpurea [7]) | Pre-emergence action against SETVI (Setaria viridis [8]; 80 g/ha) | Pre-emergence action against VERPE (Veronica persica [9]) | Pre-emergence action against VIOTR (Viola tricolor [10]; 20 g/ha) | Pre-emergence action against VIOTR (Viola tricolor [10]; 80 g/ha) | Post-emergence action against ABUTH (Abutilon theophrasti [11]; 5 g/ha) | Post-emergence action against ABUTH (Abutilon theophrasti [11]; 20 g/ha) | Post-emergence action against MATIN in % (Matricaria inodora [14]; 20 g/ha) | Post-emergence action against PHBPU in % (Pharbitis purpurea [15]; 20 g/ha) | Post-emergence action against SETVI in % (Setaria viridis [16]; 20 g/ha) | Post-emergence action against VERPE in % (Veronica persica [17]) | other results |
| --- | --- | --- | --- | --- | --- | --- | --- | --- | --- | --- | --- | --- | --- | --- | --- | --- | --- | --- | --- | --- | --- |
| CCN(CC)C(=O)c1c(Br)ccc(C(=O)Nc2nnnn2CC)c1Cl [Example 2-200] | 100% | 100% | 100% | 100% | 100% | 90% | 90% | 90% | 100% | 90% | 100% | 90% | 80% | 100% | 80% | 100;; % | 80;; % | 80% | 100% | 90% | Pre-emergence action against ALOMY (Alopecurus myosuroides [2]; 20 g/ha): 90%; Post-emergence action against ALOMY (Alopecurus myosuroides [12]; 20 g/ha): 100%; Post-emergence action against AMARE in % (Amaranthus retroflexus [13]; 5 g/ha): 100%; Post-emergence action against AMARE in % (Amaranthus retroflexus [13]; 20 g/ha): 100%; Post-emergence action against SETVI in % (Setaria viridis [16]; 5 g/ha): 100%; Post-emergence action against VIOTR in % (Viola tricolor [18]; 20 g/ha): 100% |
| CCN(C(=O)c1c(C(F)(F)F)ccc(C(=O)Nc2nnnn2C)c1Cl)C1CC1 [Example 1-136] | 90% | 100% | 100% | 90% | 100% |  | 90% | 90% | 100% | 90% | 100% |  | 100% | 100% | 90% | 100% | 90% | 80% | 100% | 80% | Pre-emergence action against DIGSA (Digitaria sanguinalis; 20 g/ha): 90%; Pre-emergence action against DIGSA (Digitaria sanguinalis; 80 g/ha): 100%; Pre-emergence action against POLCO (Polygonum convolvulus): 80%; Pre-emergence action against SETVI (Setaria viridis [8]; 20 g/ha): 90%; Post-emergence action against ALOMY (Alopecurus myosuroides [12]; 5 g/ha): 80%; Post-emergence action against ALOMY (Alopecurus myosuroides [12]; 20 g/ha): 90%; Post-emergence action against AMARE in % (Amaranthus retroflexus [13]; 5 g/ha): 100%; Post-emergence action against AMARE in % (Amaranthus retroflexus [13]; 20 g/ha): 100%; Post-emergence action against ECHCG in % (Echinochloa crus-galli [19]): 90%; Post-emergence action against VIOTR in % (Viola tricolor [18]; 5 g/ha): 100%; Post-emergence action against VIOTR in % (Viola tricolor [18]; 20 g/ha): 100% |
| CCn1nnnc1NC(=O)c1ccc(C(F)(F)F)c(C(=O)N(C)CC(F)F)c1Cl [Example 2-128] |  | 100% | 100% | 100% | 100% | 100% | 90% | 100% | 100% | 80% | 100% | 100% | 100% | 100% | 80% | 80% | 90% | 80% | 80% | 80% | Pre-emergence action against DIGSA (Digitaria sanguinalis; 20 g/ha): 90%; Pre-emergence action against DIGSA (Digitaria sanguinalis; 80 g/ha): 100%; Pre-emergence action against POLCO (Polygonum convolvulus): 100%; Post-emergence action against AVEFA in % (Avena fatua [20]): 80%; Post-emergence action against ECHCG in % (Echinochloa crus-galli [19]): 80%; Post-emergence action against MATIN in % (Matricaria inodora [14]; 5 g/ha): 80%; Post-emergence action against PHBPU in % (Pharbitis purpurea [15]; 5 g/ha): 80% |
